# Test results: patent US12544395B2, “Combination compositions comprising a beta-lactamase inhibitor and uses thereof” (priority 2018, dated 2026)
# “And” between values parts separate entries of the source, which are not always exact repeats. Equal entries are not always repeated.
# How the values were obtained:
# [1] = Metabolic stability in liver S9; assay type: in vitro ADME; conditions: Human, test conc. 3 μM
# [2] = Metabolic stability in liver S9; assay type: in vitro ADME, cynomolgus monkey; conditions: Monkey, test conc. 3 μM
# [3] = Metabolic stability in liver S9; assay type: in vitro ADME, beagle dog; conditions: Dog, test conc. 3 μM
# [4] = Metabolic stability in liver S9; assay type: in vitro ADME, Sprague-Dawley rat; conditions: Rat, test conc. 3 μM
# [5] = Metabolic stability in liver S9; assay type: in vitro ADME, CD-1 mouse; conditions: Mouse, test conc. 3 μM
# [6] = Metabolic stability in intestinal S9; assay type: in vitro ADME; conditions: Human, test conc. 3 μM
# [7] = Metabolic stability in intestinal S9; assay type: in vitro ADME, cynomolgus monkey; conditions: Monkey, test conc. 3 μM
# [8] = Metabolic stability in intestinal S9; assay type: in vitro ADME, beagle dog; conditions: Dog, test conc. 3 μM
# [9] = Metabolic stability in intestinal S9; assay type: in vitro ADME, Sprague-Dawley rat; conditions: Rat, test conc. 3 μM
# [10] = Metabolic stability in intestinal S9; assay type: in vitro ADME, CD-1 mouse; conditions: Mouse, test conc. 3 μM
# [11] = Metabolic stability in plasma; assay type: in vitro ADME; conditions: Human, test conc. 3 μM
# [12] = Metabolic stability in plasma; assay type: in vitro ADME; conditions: cynomolgus, Monkey, test conc. 3 μM
# [13] = Metabolic stability in plasma; assay type: in vitro ADME, beagle dog; conditions: Dog, test conc. 3 μM
# [14] = Metabolic stability in plasma; assay type: in vitro ADME; conditions: Sprague-Dawley, Rat, test conc. 3 μM
# [15] = Metabolic stability in plasma; assay type: in vitro ADME, CD-1 mouse; conditions: CD-1, plasma; Mouse; test conc. 3 μM
# [16] = Single ascending dose pharmacokinetics, Solutol HS-15:Water (10:90); assay type: in vivo, Beagle dogs; conditions: Compound 1 300 mg/kg PO, non-fasted
# Experimental: The dosing formulation for Compound 1 was prepared in Solutol HS-15:Water (10:90 v/v) which provided dosing formulations of Compound 1 as a solution (homogeneous and chemically-stable up to a concentration of 30 mg/mL) and as a emulsion (physically- and chemically-stable at concentrations ranging from 31-100 mg/mL) with dose concentrations ranging from 2-60 mg/mL.
# [17] = Oral dosing formulation in Solutol HS-15:Water, solution/emulsion stability; assay type: physicochemical
# Experimental: (§1) This study included dose concentrations ranging from 2-120 mg/mL.
# as §1
# [18] = system: ESBL-expressing Enterobacteriaceae (n = 33); assay: Broth microdilution MIC, ceftibuten/Compound 2 vs IV comparators; assay type: cell-based; conditions: for Number of strains at MIC value 0.5 mg/L / Number of strains at MIC value 1 mg/L / Number of strains at MIC value 2 mg/L / Number of strains at MIC value 4 mg/L / Number of strains at MIC value 8 mg/L / Number of strains at MIC value 16 mg/L / Number of strains at MIC value […] / Number of strains at MIC value ≤0.06 mg/L / Number of strains at MIC value ≥32 mg/L: ESBL-expressing (n = 33); for MIC50 / MIC90: iv
# [19] = system: KPC-expressing Enterobacteriaceae (n = 77); assay: organism not typed; assay type: cell-based; conditions: for Number of strains at MIC value 0.5 mg/L / Number of strains at MIC value 1 mg/L / Number of strains at MIC value 2 mg/L / Number of strains at MIC value 4 mg/L / Number of strains at MIC value 8 mg/L / Number of strains at MIC value 16 mg/L / Number of strains at MIC value […] / Number of strains at MIC value ≤0.06 mg/L / Number of strains at MIC value ≥32 mg/L: KPC-expressing (n = 77); for MIC50 / MIC90: iv
# [20] = system: AmpC/CMY-expressing Enterobacteriaceae (n = 44); assay: Broth microdilution MIC, ceftibuten/Compound 2 vs IV comparators; assay type: cell-based; conditions: for Number of strains at MIC value 0.5 mg/L / Number of strains at MIC value 1 mg/L / Number of strains at MIC value 2 mg/L / Number of strains at MIC value 4 mg/L / Number of strains at MIC value 8 mg/L / Number of strains at MIC value 16 mg/L / Number of strains at MIC value […] / Number of strains at MIC value ≤0.06 mg/L / Number of strains at MIC value ≥32 mg/L: AmpC/CMY-expressing (n = 44); for MIC50 / MIC90: iv
# [21] = system: OXA-48-expressing Enterobacteriaceae (n = 39); assay: as above
# [22] = Solutol HS-15:Water (10:90 v/v)
# [23] = Solutol HS-15:Water (20:80 v/v)
smiles,measurement,setting,value
COCC1=C(C(=O)OC(C)OC(=O)OC(C)C)N2C(=O)[C@@H](NC(=O)/C(=N\OC)c3csc(N)n3)[C@H]2SC1 (stereo partly drawn) [Cefpodoxime proxetil],half-life at 3 μM,[1]; liver S9,3.4 min
same,half-life at 3 μM,"[2]; cynomolgus, liver S9",4.3 min
same,half-life at 3 μM,"[3]; beagle, liver S9",4.7 min
same,half-life at 3 μM,"[4]; Sprague-Dawley, liver S9",10.2 min
same,half-life at 3 μM,"[5]; CD-1, liver S9",2.4 min
same,half-life at 3 μM,[6]; intestinal S9,35.6 min
same,half-life at 3 μM,"[7]; cynomolgus, intestinal S9",16.9 min
same,half-life at 3 μM,"[8]; beagle, intestinal S9",> 120 min
same,half-life at 3 μM,"[9]; Sprague-Dawley, intestinal S9",7.4 min
same,half-life at 3 μM,"[10]; CD-1, intestinal S9",2.5 min
same,half-life at 3 μM,[11]; plasma,4.8 min
same,half-life at 3 μM,[12],12.4 min
same,half-life at 3 μM,"[13]; beagle, plasma",26.2 min
same,half-life at 3 μM,[14],0.8 min
same,half-life at 3 μM,[15],0.6 min
"CCC(=O)N[C@H]1Cc2cccc(C(=O)OCOC(=O)C(CC)CC)c2OB1O [Compound 1, ((2-Ethylbutanoyl)oxy)methyl (R)-2-hydroxy-3-propionamido-3,4-dihydro-2H-benzo[e][1,2]oxaborinine-8-carboxylate]",dogs exhibiting emesis,[16],3 of 4
same,Liver S9 Half-life,[1],1.0 min
same,Liver S9 Half-life,[2],0.8 min
same,Liver S9 Half-life,[3],0.5 min
same,Liver S9 Half-life,[4],2.3 min
same,Liver S9 Half-life,[5],1.2 min
same,Intestinal S9 Half-life,[6],2.9 min
same,Intestinal S9 Half-life,[7],11.2 min
same,Intestinal S9 Half-life,[8],49.0 min
same,Intestinal S9 Half-life,[9],3.9 min
same,Intestinal S9 Half-life,[10],1.1 min
same,Plasma Half-life,[11],10.7 min
same,half-life at 3 μM,[12],22 min
same,Plasma Half-life,[13],43.9 min
same,half-life at 3 μM,[14],1.6 min
same,half-life at 3 μM,[15],4.6 min
same,homogeneous and chemically-stable solution up to a concentration,[17]; [22],≤ 30 mg/mL
same,physically- and chemically-stable emulsion at concentrations,[17]; [22],31 to 100 mg/mL
same,homogeneous and chemically-stable solution up to a concentration,[17]; [23],≤ 60 mg/mL
same,physically- and chemically-stable emulsion at concentrations,[17]; [23],61 to 200 mg/mL
CN(C)c1cc(NC(=O)CNC(C)(C)C)c(O)c2c1C[C@H]1C[C@H]3[C@H](N(C)C)C(O)=C(C(N)=O)C(=O)[C@@]3(O)C(O)=C1C2=O [Tigecycline],Number of strains at MIC value 0.5 mg/L,[18],11
same,Number of strains at MIC value 1 mg/L,[18],3
same,Number of strains at MIC value 2 mg/L,[18],3
same,Number of strains at MIC value 4 mg/L,[18],2
same,Number of strains at MIC value 8 mg/L,[18],0
same,Number of strains at MIC value 16 mg/L,[18],0
same,Number of strains at MIC value […],[18],4 and 10
same,Number of strains at MIC value ≤0.06 mg/L,[18],0
same,Number of strains at MIC value ≥32 mg/L,[18],0
same,MIC50,[18],0.5 µg/mL
same,MIC90,[18],2 µg/mL
same,Number of strains at MIC value 0.5 mg/L,[19],19
same,Number of strains at MIC value 1 mg/L,[19],34
same,Number of strains at MIC value 2 mg/L,[19],15
same,Number of strains at MIC value 4 mg/L,[19],5
same,Number of strains at MIC value 8 mg/L,[19],0
same,Number of strains at MIC value 16 mg/L,[19],0
same,Number of strains at MIC value […],[19],0 and 4
same,Number of strains at MIC value ≤0.06 mg/L,[19],0
same,Number of strains at MIC value ≥32 mg/L,[19],0
same,MIC50,[19],1 µg/mL
same,MIC90,[19],2 µg/mL
same,Number of strains at MIC value 0.5 mg/L,[20],8
same,Number of strains at MIC value 1 mg/L,[20],10
same,Number of strains at MIC value 2 mg/L,[20],10
same,Number of strains at MIC value 4 mg/L,[20],4
same,Number of strains at MIC value 8 mg/L,[20],2
same,Number of strains at MIC value 16 mg/L,[20],0
same,Number of strains at MIC value […],[20],4 and 6
same,Number of strains at MIC value ≤0.06 mg/L,[20],0
same,Number of strains at MIC value ≥32 mg/L,[20],0
same,MIC50,[20],1 µg/mL
same,MIC90,[20],4 µg/mL
same,MIC50,[21],0.5 µg/mL
same,MIC90,[21],2 µg/mL
NC[C@H]1O[C@H](O[C@H]2[C@H](O)[C@@H](O[C@H]3O[C@H](CO)[C@@H](O)[C@H](N)[C@H]3O)[C@H](N)C[C@@H]2N)[C@H](N)C[C@@H]1O [Tobramycin],Number of strains at MIC value 0.5 mg/L,[18],3
same,Number of strains at MIC value 1 mg/L,[18],5
same,Number of strains at MIC value 2 mg/L,[18],2
same,Number of strains at MIC value 4 mg/L,[18],1
same,Number of strains at MIC value 8 mg/L,[18],1
same,Number of strains at MIC value 16 mg/L,[18],4
same,Number of strains at MIC value […],[18],0
same,Number of strains at MIC value ≤0.06 mg/L,[18],0
same,Number of strains at MIC value ≥32 mg/L,[18],17
same,MIC50,[18],≥ 32 µg/mL
same,MIC90,[18],≥ 32 µg/mL
same,Number of strains at MIC value 0.5 mg/L,[19],3
same,Number of strains at MIC value 1 mg/L,[19],0
same,Number of strains at MIC value 2 mg/L,[19],2
same,Number of strains at MIC value 4 mg/L,[19],0
same,Number of strains at MIC value 8 mg/L,[19],3
same,Number of strains at MIC value 16 mg/L,[19],3
same,Number of strains at MIC value […],[19],0 and 1
same,Number of strains at MIC value ≤0.06 mg/L,[19],0
same,Number of strains at MIC value ≥32 mg/L,[19],65
same,MIC50,[19],≥ 32 µg/mL
same,MIC90,[19],≥ 32 µg/mL
same,Number of strains at MIC value 0.5 mg/L,[20],2
same,Number of strains at MIC value 1 mg/L,[20],2
same,Number of strains at MIC value 2 mg/L,[20],0
same,Number of strains at MIC value 4 mg/L,[20],3
same,Number of strains at MIC value 8 mg/L,[20],3
same,Number of strains at MIC value 16 mg/L,[20],6
same,Number of strains at MIC value […],[20],0
same,Number of strains at MIC value ≤0.06 mg/L,[20],0
same,Number of strains at MIC value ≥32 mg/L,[20],28
same,MIC50,[20],≥ 32 µg/mL
same,MIC90,[20],≥ 32 µg/mL
same,MIC50,[21],16 µg/mL
same,MIC90,[21],≥ 32 µg/mL
